According to PubChem BioAssay AID1996:
In brackets after ≈: the same amount, converted by molar mass.

details: buffer; pH 7.4; 200.0 µM

Compound	solubility kinetic
CN1CCN(CCNC(=O)Nc2ccccc2[N+](=O)[O-])CC1	45.5 µg/mL (≈ 148 µM)
Cc1ccnc(NC(=O)CCNS(=O)(=O)c2ccc(C)c(C)c2)c1	45.8 µg/mL (≈ 132 µM)
CCCOc1ccc(/C=C2\SC(N)=NC2=O)cc1OC	2.5 µg/mL (≈ 8.55 µM)
CC1CCN(Cc2nc(-c3ccc(Cl)cc3)no2)CC1	2.2 µg/mL (≈ 7.54 µM)
Cc1cc(C)cc(N2CC(O)Cn3c2nc2c3c(=O)[nH]c(=O)n2C)c1 (stereo unspecified)	34.3 µg/mL (≈ 100 µM)
CC(C)CNC(=O)N[C@@H](CC(C)C)C(=O)O	> 34.5 µg/mL
CCc1cccc(C)c1NC(=S)N1CCCCC1c1cccnc1 (stereo unspecified)	46.3 µg/mL (≈ 136 µM)
COc1ccc(-c2nc3ccccc3c(=O)[nH]2)cc1	2.2 µg/mL (≈ 8.72 µM)
Cc1ccc(C(=O)NCCCNC(=O)c2ccco2)cc1C	43.4 µg/mL (≈ 144 µM)
CNCCc1ccccc1	< 0.3 µg/mL
O=C1NC(=S)N/C1=C\c1cccnc1	> 30.8 µg/mL
CC(C)CN1CCN(Cc2c[nH]c3ccccc23)CC1CCO (stereo unspecified)	33.3 µg/mL (≈ 106 µM)
Nc1ncc([N+](=O)[O-])cc1S(=O)(=O)c1ccccc1	3.8 µg/mL (≈ 13.6 µM)
CCOc1ccc(NC(=O)N(c2ccccc2)c2ccccc2)cc1	2.5 µg/mL (≈ 7.52 µM)
CCN1CCN(c2ccc(NC(=O)c3cnccn3)cc2)CC1	> 46.7 µg/mL
CC(=O)c1c(C)[nH]c(C(=O)COC(=O)c2c(C)noc2C)c1C	5.4 µg/mL (≈ 17 µM)
Cc1cc(Br)ccc1N=C1C(=O)Nc2ccccc21	8 µg/mL (≈ 25.4 µM)
Cc1ccc(C)c(NC(=S)NC23CN4CN(CN(C4)C2)C3)c1	> 47.6 µg/mL
CC1CN(C(=O)NCc2ccccc2)c2cc(Cl)ccc2O1 (stereo unspecified)	6.3 µg/mL (≈ 19.9 µM)
Cc1ccc(NC(=O)NC2CCCCCCC2)cc1C	< 0.3 µg/mL
COC(=O)CC(CP(=O)([O-])CN(C)C=O)C(=O)OC (stereo unspecified)	27.9 µg/mL

Compound	solubility kinetic
COc1ccc2c(COC(=O)CNS(=O)(=O)c3ccccc3)cc(=O)oc2c1	46 µg/mL (≈ 114 µM)
CCOC(=O)Cc1csc(NC(=O)CCC(=O)O)n1	> 42.9 µg/mL
O=C(CSc1ncccn1)NCc1cccs1	> 39.8 µg/mL
CC(=O)Nc1ccc(C(=O)NCCN2CCOCC2)cc1	36 µg/mL (≈ 124 µM)
CCCN1CCC(NC(=O)Nc2cccc3ccccc23)CC1	> 46.7 µg/mL
COc1ccc(C(=O)NCCCNC(=O)c2cccnc2)cc1OC	44.5 µg/mL (≈ 130 µM)
CC(C)c1nc(Cl)c(C#N)c2c1COC(C)(C)C2	6.6 µg/mL (≈ 24.9 µM)
Oc1ccccc1CNc1nccs1	> 30.9 µg/mL
NC(=O)CSc1nccn1Cc1ccccc1	> 37.1 µg/mL
Cc1ccc(C)c(NC(=O)CCN2C(=O)c3ccccc3C2=O)c1	1.2 µg/mL (≈ 3.72 µM)
Cc1ccc(C(=O)NCCC(=O)NCc2ccco2)cc1	> 42.9 µg/mL
COC(=O)c1ccc(NC(=O)c2ccc3nc(C)sc3c2)cc1	< 0.3 µg/mL
COc1ccc(C2NC(=O)CCC2[N+](=O)[O-])cc1OC (stereo unspecified)	> 42 µg/mL
Fc1ccc(-n2cc(-c3ccccc3)c3c(=S)nc[nH]c32)cc1	< 0.2 µg/mL
O=C(CN1CCN(c2ccc(Cl)cc2[N+](=O)[O-])CC1)N1CCOCC1	> 55.3 µg/mL
O=C(CSc1nncc2ccccc12)Nc1cccc(C(=O)O)c1	> 50.9 µg/mL
Cc1ccc(NC(=O)Nc2cnc3ccccc3c2)cc1	0.3 µg/mL (≈ 1.08 µM)
COc1ccc(CCC(=O)N2CCN(c3cccc(C)c3C)CC2)cc1	17.3 µg/mL (≈ 49.1 µM)
CC(C)Oc1cccc(C(=O)C2CCCN(C3CCOCC3)C2)c1 (stereo unspecified)	31 µg/mL (≈ 93.5 µM)
COc1cc(/C=C/c2ccc3cccc(O)c3n2)ccc1O	4.8 µg/mL (≈ 16.4 µM)
COc1ccc(-c2noc(CCCC(=O)N3CCOCC3)n2)cc1	49.6 µg/mL (≈ 150 µM)

Compound	solubility kinetic
CC1(C)CC(CC(=O)O)CC(C)(C)N1.Cl	> 35.4 µg/mL
CCSc1ncc(Cl)c(C(=O)Nc2ccccc2OC)n1	< 0.2 µg/mL
O=C(NCc1ccccn1)C1CC(c2ccccc2Cl)=NO1 (stereo unspecified)	> 47.4 µg/mL
Cc1ccc(NC(=O)Cc2ccc(Cl)cc2)nc1	28.5 µg/mL (≈ 109 µM)
O=C(OCC(=O)c1ccc(Cl)cc1Cl)c1cnccn1	> 46.7 µg/mL
O=C(Nc1ccc(N2C(=O)CCC2=O)cc1Cl)c1cccs1	> 50.2 µg/mL
COc1ccc([N+](=O)[O-])cc1NCC(=O)c1ccc(C)cc1	14.2 µg/mL (≈ 47.3 µM)
CCC(C)N1CCN(S(=O)(=O)Cc2ccccc2)CC1 (stereo unspecified)	> 44.5 µg/mL
Cc1c(Cl)cccc1NC(=S)NC1CCCC1	7.5 µg/mL (≈ 27.9 µM)
Cc1ccccc1CC(=O)N1CCN(C(=O)c2ccco2)CC1	> 46.9 µg/mL
COc1ccc(C(=O)Nc2nc3ccccc3s2)c(OC)c1	1 µg/mL (≈ 3.18 µM)
Cc1cc(N2C(=O)c3ccccc3C2=O)n(C)n1	> 36.2 µg/mL
O=C(O)c1c(Cl)nc2ccccn12	> 29.5 µg/mL
CC(C)CCn1c(=O)[nH]c2ccccc21	> 30.6 µg/mL
CCc1cccc(C)c1NC(=O)c1cccnc1	34.4 µg/mL (≈ 143 µM)
O=C(Nc1nccs1)c1ccc([N+](=O)[O-])cc1Cl	3.8 µg/mL (≈ 13.4 µM)
CCc1ccccc1NC(=O)C1CCN(c2cnccn2)CC1	> 46.6 µg/mL
Cc1nc(Cc2nnc(SCC(=O)N3CC(=O)Nc4ccccc43)o2)cs1	> 60.2 µg/mL
CCCCn1c2ccccc2c2cc(CC(N)=O)ccc21	3.8 µg/mL (≈ 13.6 µM)
